Legend:
CL187 cells [1] = test: Apoptosis by flow cytometry (Annexin V-FITC/PI); format: cell-based, Human; conditions: 48 h
Protocol: Exponentially growing CL187 cells were seeded in 6-well plates (1.2 × 10^6 cells/well) until a well was filled with cells. The RE or PTE at various concentrations were added separately into plate wells and incubated with cells for 48 h. The incubated cells were collected and treated by Annexin V-FITC/PI Apoptosis Detection Kit. The stained cells were analyzed with a flow cytometer (Becton-Dickinson, Franklin Lakes, NJ, USA), and data analyses were performed with BD Cell Quest^TM pro 6.0..

siRNA-Tdp1 CL187 cells [2] = test: Cell viability of Tdp1-silenced cells; format: cell-based; conditions: Homo sapiens, 36 h, siRNA-Tdp1 CL187, 36 h
Top1 and Tdp1 = Top1 and Tdp1 in xenograft tumor tissues (WB, qPCR); format: in vivo, BABLc/nude mice; conditions: subcutaneous CL187 xenograft
Protocol: The 20 mg of the tumor was added into 1 mL RIPA lysis, and homogenized for 3 times under low temperature condition, and centrifuged at 12,000 rpm for 10 min. Subsequently, the supernatant was collected, and the contents of Top1 and Tdp1 were determined by WB as described in Section 2.4.4. The 20 mg of tumor was added into 1 mL Trizol, and homogenized for 3 times. The expression levels of Top1 and Tdp1 were analyzed using the method described in Section 2.4.5.

P53 = test: Western blot for P53; format: cell-based, Human; conditions: CL187 cells, 12 h
Protocol: (§1) CL187 cells were treated with RE or PTE for 6 or 12 h, collected, and placed into lysis buffer (KeyGEN BioTECH, Nanjing, China). The total protein content in the cell lysates was measured using a BCA kit. Equivalent amount of total protein (30 μg) was loaded onto 10% SDS-PAGE gel. Electrophoresis was performed at 80 V for 25 min. After the sample went through concentrated gel, the voltage was adjusted to 120 V. Electrophoresis was stopped when the bromophenol blue band approached the bottom of the gel. After being transferred to PVDF membranes, the samples were incubated separately with 3 types of primary antibodies Top1, Tdp1, and P53 rabbit mAb (CST, Boston, MA, USA), followed by the incubation with secondary antibody goat anti-rabbit IgG (HRP)-conjugated (1:3000). ECL kit (New Cell and Molecular Biotech, Suzhou, China) was used for color development, and the images were collected by the gel imaging system (Tanon-5200, Shanghai, China).

CL187 cells [3] = test: Cell cycle analysis by flow cytometry; format: cell-based, Human; conditions: 48 h, blank control 14.70%
SW480 = test: Cell viability assay (CCK-8); format: cell-based; conditions: Homo sapiens
Protocol: PTE or RE were dissolved in DMSO and diluted with culture medium to 1–100 μM. The final concentration of DMSO was less than 0.1%, and 0.1% DMSO as negative control. CPT, as Top1 inhibitor, was diluted to 0.5 μM [36, 37], and FM, as Tdp1 inhibitor was diluted to 25 μM [38]. Exponentially growing cells were seeded in 96-well plates (5 × 10^3 cells/well) for 12 h. Various drugs were added separately and incubated for 24, 48, and 72 h. Cell viability was determined by CCK-8 (Beyotime Biotechnology, Shanghai, China) assay. […]
The drug concentration required for inhibiting cell proliferation by 50% (IC50) was determined by interpolation from dose-response curves.

siRNA-Tdp1 CL187 cells [4] = test: Cell viability of Tdp1-silenced cells; format: cell-based, Human
Protocol: (§2) PTE or RE were dissolved in DMSO and diluted with culture medium to 1–100 μM. The final concentration of DMSO was less than 0.1%, and 0.1% DMSO as negative control. […] Exponentially growing cells were seeded in 96-well plates (5 × 10^3 cells/well) for 12 h. Various drugs were added separately and incubated for 24, 48, and 72 h. Cell viability was determined by CCK-8 (Beyotime Biotechnology, Shanghai, China) assay.

siRNA-Top1 CL187 cells = test: Cell viability of Top1-silenced cells; format: cell-based, Human
Protocol: as §2

Top1 = test: Western blot of Top1 protein in cells; format: cell-based, Human; conditions: 6 h
Protocol: as §1

## COc1cc(/C=C/c2ccc(O)cc2)cc(OC)c1 [PTE, 3,5-dimethoxy-4′-hydroxy-trans-stilbene]
CL187 cells [1]; CL187, 10 μM
  apoptosis rate (early and late apoptotic cells): 28.95%
CL187 cells [1]; CL187, 20 μM
  apoptosis rate (early and late apoptotic cells): 29.69%
CL187 cells [1]; CL187, 50 μM
  apoptosis rate (early and late apoptotic cells): 25.76%
siRNA-Tdp1 CL187 cells [2]
  IC50: 34.2 ± 7.33 µM
Top1 and Tdp1
  mRNA expression of Top1 and Tdp1 in tumor tissues: inhibited
Top1 and Tdp1; especially high-concentration group
  protein contents of Top1 and Tdp1 in tumor tissues (WB): decreased significantly
P53
  expression of P53 (WB): promoted the expression of P53
CL187 cells [3]; CL187, 10 μM
  proportion of G2/M-phase cells: 48.69%
CL187 cells [3]; CL187, 20 μM
  proportion of G2/M-phase cells: 52.98%
CL187 cells [3]; CL187, 50 μM
  proportion of G2/M-phase cells: 55.33%
SW480; SW480, 24 h
  IC50: 113 ± 24 µM
SW480; SW480, 48 h
  IC50: 35.7 ± 9.32 µM
SW480; SW480, 72 h
  IC50: 40.5 ± 10.8 µM
siRNA-Tdp1 CL187 cells [4]; Homo sapiens, 24 h, siRNA-Tdp1 CL187, 24 h
  IC50: 74.2 ± 21.8 µM
siRNA-Tdp1 CL187 cells [4]; Homo sapiens, 48 h, siRNA-Tdp1 CL187, 48 h
  IC50: 24.8 ± 4.62 µM
siRNA-Tdp1 CL187 cells [4]; Homo sapiens, 72 h, siRNA-Tdp1 CL187, 72 h
  IC50: 18.4 ± 3.78 µM
siRNA-Tdp1 CL187 cells [4]; siRNA-Tdp1 CL187, 72 h
  IC50: ~20 µM
siRNA-Top1 CL187 cells; Homo sapiens, 24 h, siRNA-Top1 CL187, 24 h
  IC50: 70 ± 16.2 µM
siRNA-Top1 CL187 cells; Homo sapiens, 48 h, siRNA-Top1 CL187, 48 h
  IC50: 31.9 ± 8.11 µM
siRNA-Top1 CL187 cells; Homo sapiens, 72 h, siRNA-Top1 CL187, 72 h
  IC50: 20.2 ± 4.1 µM
siRNA-Top1 CL187 cells; siRNA-Top1 CL187, 72 h
  IC50: ~20 µM
Top1; Tdp1-over CL187 cells
  Top1 protein content: reduced in dese-dependent manner
Top1; siRNA-Tdp1 CL187 cells
  Top1 protein content: significantly decreased
Top1; wild-type CL187 cells
  Top1 protein content: decreased in PTE treatment group, but neither in dese-dependent and significant manner

From PMC8391236, “Effect of Pterostilbene, a Natural Derivative of Resveratrol, in the Treatment of Colorectal Cancer through Top1/Tdp1-Mediated DNA Repair Pathway” (Cancers, 2021)
